Structures can show the parent of a compound that is named as a salt. Where two headings read alike, the source gives them in different places.
Legend:
[1] = Dissolution of vilazodone in different organic solvents; format: physicochemical; details: 10 mg/ml, sonicated 30 min, room temperature 24 h
Description: (§1) 10 mg of vilazodone hydrochloride solid powder was put into a 4 ml EP tube. 1 ml of dichloromethane, methanol, ethanol, acetone and ethyl acetate was added to each tube separately, and the tubes were sonicated in a water bath for 30 minutes. The dissolution of the powder was observed; after the samples were placed at room temperature for 24 h, the appearance of the samples was observed and whether there was precipitation was noted.

[2] = Dissolution of vilazodone hydrochloride in acetone aqueous solution; format: physicochemical; details: 10 mg
Description: 10 mg of vilazodone hydrochloride solid powder was put into a 4 ml EP tube. 1 ml of acetone aqueous solution of different concentrations was added to each tube separately, and the tubes were sonicated in a water bath for 30 minutes. The dissolution of the powder was observed; if the powder was dissolved quickly, a small amount of powder was continued to add to increase the concentration of the sample and was dissolved ultrasonically; finally, the solution samples were placed at room temperature for 24 hours to observe whether there was precipitation.

[3] = Dissolution of vilazodone hydrochloride in methanol aqueous solution; format: physicochemical; details: 30 mg
Description: 30 mg of vilazodone hydrochloride solid powder was put into a 10 ml EP tube 3 ml of methanol aqueous solution of different concentrations was added to each tube separately, and the tubes were sonicated in a water bath for 30 minutes. The dissolution of the powders was observed; if the powder was dissolved quickly, a small amount of powder was continued to add to increase the concentration of the sample and was dissolved ultrasonically; finally, the solution samples were placed at room temperature for 24 hours to observe whether there was precipitation.

[4] = cited from earlier work
[5] = Dissolution of vilazodone hydrochloride in ethanol aqueous solution; format: physicochemical; details: 10 mg
Description: as §1, with “ethanol aqueous solution of different concentrations” for “dichloromethane, methanol, ethanol, acetone and ethyl acetate”

Phenomenon (dissolution) ([1]; Acetone): Insoluble, a little of precipitation
Phenomenon (dissolution) ([1]; Dichloromethane): Insoluble, a lot of precipitation
Phenomenon (dissolution) ([1]; Ethanol): Insoluble, a little of precipitation
Phenomenon (dissolution) ([1]; Ethyl acetate): Insoluble, a lot of precipitation
Phenomenon (dissolution) ([1]; Methanol): Insoluble, a little of precipitation
Phenomenon (dissolution) ([2]; Acetone 0.1 ml + Water 0.9 ml): Insoluble, a lot of precipitation
Phenomenon (dissolution) ([2]; Acetone 0.2 ml + Water 0.8 ml): Insoluble, a lot of precipitation
Phenomenon (dissolution) ([2]; Acetone 0.3 ml + Water 0.7 ml): Insoluble, a lot of precipitation
Phenomenon (dissolution) ([2]; Acetone 0.9 ml + Water 0.1 ml): Insoluble, a lot of precipitation
Result (dissolution) ([3]; Methanol 0.3 ml + Water 2.7 ml): Insoluble, a lot of precipitation
Result (dissolution) ([3]; Methanol 0.6 ml + Water 2.4 ml): Insoluble, a lot of precipitation
Result (dissolution) ([3]; Methanol 0.9 ml + Water 2.1 ml): Insoluble, a lot of precipitation
Result (dissolution) ([3]; Methanol 1.2 ml + Water 1.8 ml): Insoluble, a lot of precipitation
Phenomenon (dissolution) ([5]; Ethanol 0.1 ml + Water 0.9 ml): Insoluble, a lot of precipitation
Phenomenon (dissolution) ([5]; Ethanol 0.2 ml + Water 0.8 ml): Insoluble, a lot of precipitation
Phenomenon (dissolution) ([5]; Ethanol 0.3 ml + Water 0.7 ml): Insoluble, a lot of precipitation
Phenomenon (dissolution) ([5]; Ethanol 0.4 ml + Water 0.6 ml): Dissolved, precipitate after 1 day
Phenomenon (dissolution) ([5]; Ethanol 0.6 ml + Water 0.4 ml): Dissolved, precipitate after 1 day
Phenomenon (dissolution) ([5]; Ethanol 0.8 ml + Water 0.2 ml): Insoluble, a lot of precipitation
Phenomenon (dissolution) ([5]; Ethanol 0.9 ml + Water 0.1 ml): Insoluble, a lot of precipitation
Structure (SMILES): N#Cc1ccc2[nH]cc(CCCCN3CCN(c4ccc5oc(C(N)=O)cc5c4)CC3)c2c1 [vilazodone hydrochloride, 5-{4-[4-(5-cyano-3-indole)-butyl]-1-piperazinyl}-coumarone-2-carboxamide]
solubility ([4]; environment with pH 3.1): a certain solubility
solubility ([4]; gastric juice (pH 1.2) and intestinal juice (pH 4.5 to 6.8)): poor solubility

Reference: patent US20220071993A1, “A VILAZODONE SOLID DISPERSION AND PREPARATION METHOD THEREOF” (SUNSHINE LAKE PHARMA CO., LTD., priority 2018, published 2022)
